Reference: patent US20180371256A1, “BENZOCOUMARIN-BASED TWO-PHOTON ABSORBING FLUORESCENT DYE” (POSTECH ACADEMY-INDUSTRY FOUNDATION, priority 2017, published 2018)
Entries after “also recorded” stand apart in the source; their conditions may differ.

How the values were obtained:
[1] = UV/Vis absorbance spectra of benzocoumarin-based fluorescent dyes (wavelength of maximum absorbance); assay type: physicochemical; details: 10 μM dye in HEPES buffer, PBS buffer, dioxane, ethanol, acetonitrile, dichloromethane, dimethylsulfoxide or toluene (1% DMSO); compared with Compounds 1c and 1g to 1l (FIG. 1)
Source text: (§1) The inventors confirmed absorption characteristics of representative compounds among Compounds 1g to 1k, which are two-photon absorbing near-infrared fluorescent dyes, and Compounds 1a to 1f and 1l to 4g, which are two-photon absorbing fluorescent dyes, of the present invention, and the results are shown in FIG. 1.
Specifically, to confirm the characteristics of UV/Vis absorbance spectra of benzocoumarin-based near-infrared fluorescent dyes and derivatives thereof, the inventors measured UV/Vis absorbance spectra (measured using a HP8453 UV/Vis absorbance spectrophotometer) by charging a quartz cell with a 1-cm path length with 4-(2-hydroxyethyl)-1-piperazineethanesulfonic acid (HEPES) buffer, phosphate-buffered saline (PBS) buffer, dioxane, ethanol, acetonitrile, dichloromethane, dimethylsulfoxide, or a toluene solution (containing 1% DMSO), which contains 10 μM each of Compounds 1a to 4g, and the wavelength of maximum absorbance is shown in FIG. 1.

[2] = Fluorescence spectra of benzocoumarin-based fluorescent dyes; assay type: physicochemical; details: 10 μM dye in HEPES buffer, dioxane, ethanol, acetonitrile, dichloromethane, dimethylsulfoxide or toluene (1% DMSO); compared with Compounds 1c and 1g to 1l (FIG. 2)
Source text: as §1, with “2.” for “1.”
Specifically, to confirm the characteristics of fluorescent spectra of two-photon absorbing near-infrared fluorescent dyes, the inventors measured fluorescence spectra (measured using a photon technical international fluorescence system) by charging a quartz cell with a 1-cm path length with 4-(2-hydroxyethyl)-1-piperazineethanesulfonic acid (HEPES) buffer, […], dioxane, ethanol, acetonitrile, dichloromethane, dimethylsulfoxide, a toluene solution (containing 1% DMSO), which contains 10 μM each of Compounds 1a to 4g, and the wavelength of maximum absorbance is shown in FIG. 2.

mouse kidney tissue = assay: Two-photon fluorescence microscopy imaging of mouse kidney tissue slices treated with dye; set-up: species or system mouse (Balb/C); details: 10 μM
Method: The inventors observed fluorescent changes by two-photon microscopy after mouse tissue was treated with Compound 1g of the present invention, and the result is shown in FIG. 3.
Specifically, to observe a two-photon microscopy image of mouse tissue treated with Compound 1g, kidney tissue of a Balb/C type mouse (6 weeks old) was used, and an experiment was carried out under a light-protected condition (dark room). The mouse kidney tissue was dissected and washed with a PBS buffer solution, and then each organ was frozen over dry-ice for 5 minutes. The frozen organs were crushed with a hammer, and then a tissue slice sample was prepared to a thickness of 16 μm using a cutter (Cryostat machine, Leica, CM3000 model). […] The tissue slice sample was put on a specimen block (Paul Marienfeld GMbH & Co.), and the specimen block was immersed in 4% paraformaldehyde for 10 minutes and washed with a PBS buffer solution, and then the tissue was fixed again using a mount solution (Gel Mount, BIOMEDA). The prepared tissue slice sample was immersed in a PBS buffer solution containing Compound 1g and acedan or IminoPOS at a concentration of 10 μM for 10 minutes, washed with a PBS buffer solution three times, and then fixed with 4% paraformaldehyde, followed by observation of fluorescence. […]

| Structure (SMILES) | wavelengths of maximum absorbance [1] | wavelengths of maximum absorbance (fluorescence spectra, FIG. 2) [2] | quality of two-photon fluorescence image (mouse kidney tissue; depths 25, 125, 175 μm, compared to acedan or IminoPOS (conventional two-photon dyes), FIG. 3c) | signal/noise (S/N) ratio of two-photon tissue image (mouse kidney tissue; two-photon excitation 900 nm, surface layer to middle depth (50 to 150 μm), compared to acedan (800 nm) and IminoPOS (850 nm), FIG. 3b) |
| --- | --- | --- | --- | --- |
| O=c1oc2cc3cc(N4CCCC4)ccc3cc2cc1-c1ccncc1 [Compound 1a, 3-(pyridine-4-yl)-8-(pyrrolidine-1-yl)-2H-benzo[g]chromene-2-one] | did not have a significant difference | did not have a significant difference |  |  |
| C=CCNc1ccc2cc3cc(-c4ccncc4)c(=O)oc3cc2c1 [Compound 1e, 8-(allylamino)-3-(pyridine-4-yl)-2H-benzo[g]chromene-2-one] | did not have a significant difference | did not have a significant difference |  |  |
| C[n+]1ccc(-c2cc3cc4ccc(N5CCCC5)cc4cc3oc2=O)cc1.[OH-] [Compound 1g, 1-methyl-4-(2-oxo-8-(pyrrolidine-1-yl)-2H-benzo[g]chromene-3-yl)pyridinium trifluoromethanesulfonate] |  |  | superior fluorescence image; also recorded: high-definition and high-contrast image | increased |

The next lines start with results.

| wavelengths of maximum absorbance [1] | wavelengths of maximum absorbance (fluorescence spectra, FIG. 2) [2] | Structure (SMILES) | quality of two-photon fluorescence image (mouse kidney tissue; depths 25, 125, 175 μm, compared to acedan or IminoPOS (conventional two-photon dyes), FIG. 3c) | signal/noise (S/N) ratio of two-photon tissue image (mouse kidney tissue; two-photon excitation 900 nm, surface layer to middle depth (50 to 150 μm), compared to acedan (800 nm) and IminoPOS (850 nm), FIG. 3b) |
| --- | --- | --- | --- | --- |
| did not have a significant difference | did not have a significant difference | CN(C)c1ccc2cc3cc(-c4ccncc4)c(=O)oc3cc2c1 [Compound 1b, 8-(dimethylamino)-3-(pyridine-4-yl)-2H-benzo[g]chromene-2-one] |  |  |
| did not have a significant difference | did not have a significant difference | CNc1ccc2cc3cc(-c4ccncc4)c(=O)oc3cc2c1 [Compound 1d, 8-(methylamino)-3-(pyridine-4-yl)-2H-benzo[g]chromene-2-one] |  |  |
| did not have a significant difference | did not have a significant difference | Nc1ccc2cc3cc(-c4ccncc4)c(=O)oc3cc2c1 [Compound 1f, 8-amino-3-(pyridine-4-yl)-2H-benzo[g]chromene-2-one] |  |  |
